Data published in patent publication US8895752B2, “Alkylsulfonyl-substituted thiazolide compounds” (priority 2007, dated 2014).
Where two headings read alike, the source gives them in different places.

Tests used:
[1] = test system: HBV; experiment: HBV antiviral assay in confluent 2.2.15 cell cultures (HBV DNA, quantitative blot hybridization); assay type: cell-based, Hepatitis B Virus
Method: EC50, EC90 and CC50 values (±standard deviations [S.D.]) were calculated by linear regression analysis using data combined from all treated cultures (Korba and Gerin, 1992; Okuse et al., 2005). […] Selectivity index (S.I.) was calculated as CC50/EC90 for HBV assays and CC50/EC50 for HCV assays. EC90 values were used for calculation of the S.I. in HBV assays since at least a 3-fold depression of HBV DNA levels is typically required to achieve statistical significance in this assay system (Korba and Gerin, 1992).

[2] = Cytotoxicity by neutral red dye uptake in 2.2.15 cells; conditions: human
Method: (§1) HBV antiviral assays were conducted as previous described (Korba and Gerin, 1992).
(§2) EC50, EC90 and CC50 values (±standard deviations [S.D.]) were calculated by linear regression analysis using data combined from all treated cultures (Korba and Gerin, 1992; Okuse et al., 2005). […] Selectivity index (S.I.) was calculated as CC50/EC90 for HBV assays and CC50/EC50 for HCV assays. EC90 values were used for calculation of the S.I. in HBV assays since at least a […] depression of HBV DNA levels is typically required to achieve statistical significance in this assay system (Korba and Gerin, 1992). For combination treatments, EC50, EC90, CC50 and S.I. are presented for the first compound listed. The molar ratio of the compounds in each combination is also indicated.

[3] = test system: 2.2.15 cells; experiment: as above
Method: as §1, §2

[4] = test system: Wild-type HBV; experiment: 5-day transient transfection assay in Huh7 cells, intracellular HBV RI by Southern blot; assay type: cell-based, Hepatitis B Virus
[5] = test system: HBV Mutant L180M/M204V; experiment: as above; assay type: cell-based, Hepatitis B Virus
Method: (§3) Activity against LMV-resistant (Allen et al., 1998) and ADV-resistant (Angus et al., 2003) HBV mutants was performed in a 5-day assay using a transient transfection method as previously described (Iyer et al., 2004). Antiviral activity was determined by quantitative Southern blot hybridization of intracellular HBV DNA replication intermediates (HBV RI).

[6] = test system: HBV Mutant L180M; experiment: as above; assay type: cell-based, Hepatitis B Virus
Method: as §3

[7] = test system: HBV Mutant M204I; experiment: as above; assay type: cell-based, Hepatitis B Virus
Method: as §3

[8] = test system: HBV Mutant M204V; experiment: as above; assay type: cell-based, Hepatitis B Virus
Method: as §3

[9] = test system: HBV Mutant N236T; experiment: as above; assay type: cell-based, Hepatitis B Virus
Method: as §3

[10] = test system: HBV RNA; experiment: Intracellular HBV RNA by quantitative northern blot hybridization in 2.2.15 cells; assay type: cell-based, Hepatitis B Virus
Method: (§4) Cultures of 2.2.15 cells were treated under standard procedures and semi-quantitative EIA-based analysis of HBV proteins was performed as previously described (Korba and Gerin, 1995), except that HBeAg was analyzed ETI-EBK Plus® (DiaSorin, Inc., Stillwater, Minn. USA). Samples were diluted (2 to 10-fold) to bring levels into the dynamic response ranges of the EIA's. HBsAg, and HBeAg were analyzed from culture medium samples and HBcAg was analyzed from intracellular lysates. Intracellular HBV RNA was assessed by quantitative northern blot hybridization (Korba and Gerin, 1995).

[11] = test system: HBeAg; experiment: Semi-quantitative EIA of HBV proteins in 2.2.15 culture medium; assay type: cell-based, Hepatitis B Virus
Method: as §4

[12] = test system: HBsAg; experiment: as above; assay type: cell-based, Hepatitis B Virus
Method: as §4

[13] = test system: HBcAg; experiment: Semi-quantitative EIA of HBV proteins in 2.2.15 intracellular lysates; assay type: cell-based, Hepatitis B Virus
Method: as §4

[14] = test system: HCV replicon, sub-genomic CON1, genotype 1b; experiment: 3-day HCV replicon assay in AVA5 cells (intracellular HCV RNA, blot hybridization); assay type: cell-based, Hepatitis C Virus; conditions: for EC50 / EC90: 3 days, first compound listed for combinations
Method: (§5) Antiviral activity of test compounds was assessed in a 3-day assay using the stably-expressing HCV replicon cell line, AVA5 (sub-genomic CON1, genotype 1b) (Blight et al., 2000) maintained as sub-confluent cultures on 96-well plates as previously described (Okuse et al., 2005). Antiviral activity was determined by blot hybridization analysis of intracellular HCV RNA (normalized to the level of cellular B-actin RNA in each culture sample) and cytotoxicity was assessed by neutral red dye uptake after 3 days of treatment. Additional studies were performed using Huh7 cells containing another HCV replicon, H/FL-Neo, a genotype 1a full length construct (Blight et al., 2003). For studies involving human serum, standard culture medium (which contains 10% fetal bovine serum) and assay conditions were maintained.
as §2

[15] = Cytotoxicity by neutral red dye uptake in AVA5 cells; assay type: cell-based; conditions: human, Genotype 1b replicon
[16] = test system: HCV replicon H/FL-Neo, genotype 1a full length; experiment: HCV replicon assay in Huh7 cells containing H/FL-Neo; assay type: cell-based, Hepatitis C Virus
Method: as §5, §2

[17] = Cytotoxicity by neutral red dye uptake in Huh7 cells containing H/FL-Neo; assay type: cell-based; conditions: human; Genotype 1a replicon
[18] = test system: HCV replication; experiment: HCV replicon assay, 6 days total duration, NTZ monotherapy pre-treatment and combination therapy; assay type: cell-based; conditions: Hepatitis C virus, 144 h, first named drug for combinations
Method: as §5, with “Antiviral activity of test compounds was assessed in a 3-day assay using the stably-expressing” left out
as §2

[19] = oral 500 mg tablet; cited from earlier work
[20] = test system: LMV-resistant and ADV-resistant HBV mutants; experiment: Activity against drug-resistant HBV mutants, transient transfection in Huh7 cells (overall statement); assay type: cell-based, Hepatitis B Virus; conditions: all drug-resistant viruses tested
Method: as §3

[21] = test system: AVA5 cells; experiment: Cytotoxicity by neutral red dye uptake in AVA5 cells; assay type: cell-based; conditions: Genotype 1b replicon, 3 days
[22] = test system: HCV replicon; experiment: Primary HCV replicon cell assay; assay type: cell-based, Hepatitis C Virus; conditions: Hepatitis C virus
Method: as §5, §2

[23] = Primary HCV replicon cell assay, cytotoxicity; conditions: human, HCV replicon cells (primary assay), CC50, primary assay
Method: as §5, §2

[24] = test system: HCV replicon genotype 1B; experiment: Secondary HCV replicon cell assay, genotype 1B; assay type: cell-based, Hepatitis C Virus
Description: (§6) Table 10 presents data from the secondary HCV replicon cell assays using genotypes 1B and 1A.

[25] = test system: HCV replicon cells, genotype 1B; experiment: Secondary HCV replicon cell assay, genotype 1B, cytotoxicity; assay type: cell-based
Description: as §6

[26] = test system: HCV replicon genotype 1A; experiment: Secondary HCV replicon cell assay, genotype 1A; assay type: cell-based, Hepatitis C Virus
Description: as §6

[27] = test system: HCV replicon cells, genotype 1A; experiment: Secondary HCV replicon cell assay, genotype 1A, cytotoxicity; assay type: cell-based
Description: as §6

[28] = Hepatitis B virus, read-out: Intracellular HBV RI EC50
[29] = Hepatitis B virus, 2.2.15 cells, nine daily doses, read-out: Extracellular virion DNA EC50
[30] = Hepatitis C virus, Ava5, 72 h, Genotype 1b replicon
[31] = Hepatitis C virus, Huh-7, Genotype 1a replicon

CC(=O)Oc1ccccc1C(=O)Nc1ncc([N+](=O)[O-])s1 [NTZ, nitazoxanide]
EC50 [1, 28]: 0.59 ± 0.07 µM | EC50 ([1]; Hepatitis B virus, 2.2.15 cells, Table 3 experiment, read-out: HBV R.I. EC50): 0.73 ± 0.06 µM | EC90 ([1]; Hepatitis B virus, 2.2.15 cells, Table 3 experiment, read-out: HBV R.I. EC90): 2.2 ± 0.3 µM | EC50 ([1]; Hepatitis B virus, 2.2.15 cells, Table 3 experiment, read-out: Virion production EC50): 0.19 ± 0.02 µM | EC90 ([1]; Hepatitis B virus, 2.2.15 cells, Table 3 experiment, read-out: Virion production EC90): 0.58 ± 0.04 µM | EC50 [1, 29]: 0.12 ± 0.02 µM | CC50 at 9 days [2]: > 100 µM | cytotoxicity in rapidly dividing cultures of 2.2.15 cells ([3]; rapidly dividing cultures): 20 ± 1.3 µM | EC50 ([4]; Hepatitis B virus, Huh-7): 0.21 ± 0.03 µM | EC90 ([4]; Hepatitis B virus, Huh-7, Wild-type, Huh7 transient transfection): 0.77 ± 0.09 µM | EC50 ([5]; Hepatitis B virus, Huh-7): 0.18 ± 0.02 µM | EC90 ([5]; Hepatitis B virus, Huh-7): 0.72 ± 0.09 µM | EC50 ([6]; Hepatitis B virus, Huh-7): 0.23 ± 0.03 µM | EC90 ([6]; Hepatitis B virus, Huh-7): 0.8 ± 0.09 µM | EC50 ([7]; Hepatitis B virus, Huh-7): 0.31 ± 0.05 µM | EC90 ([7]; Hepatitis B virus, Huh-7): 1 ± 0.2 µM | EC50 ([8]; Hepatitis B virus, Huh-7): 0.15 ± 0.02 µM | EC90 ([8]; Hepatitis B virus, Huh-7): 0.7 ± 0.08 µM | EC50 ([9]; Hepatitis B virus, Huh-7): 0.28 ± 0.03 µM | EC90 ([9]; Hepatitis B virus, Huh-7): 0.85 ± 0.1 µM | effect on intracellular HBV RNA (Northern blot hybridization) [10]: did not induce a reduction | EC50 ([11]; read-out: HBeAg EC50, 2.2.15 cells): 0.26 ± 0.02 µM | EC90 ([11]; read-out: HBeAg EC90, 2.2.15 cells): 1.3 ± 0.1 µM | EC50 ([12]; read-out: HBsAg EC50, 2.2.15 cells): 0.22 ± 0.03 µM | EC90 ([12]; read-out: HBsAg EC90, 2.2.15 cells): 1 ± 0.1 µM | EC50 ([13]; read-out: HBcAg EC50, 2.2.15 cells): 1.1 ± 0.1 µM | EC90 ([13]; read-out: HBcAg EC90, 2.2.15 cells): 3 ± 0.2 µM | EC50 [14, 30]: 0.21 ± 0.03 µM | EC90 [14, 30]: 0.93 ± 0.11 µM | CC50 at 3 days [15]: 38 ± 1.8 µM | antiviral activity against full length genotype 1a replicon compared with AVA5 cells (genotype 1b) [16]: equivalent | EC50 [16, 31]: 0.33 ± 0.05 µM | EC90 [16, 31]: 1.1 ± 0.1 µM | CC50 at 3 days [17]: 49 ± 1.5 µM | EC50 [18]: 0.2 ± 0.02 µM | EC90 [18]: 0.92 ± 0.1 µM | detection in plasma [19]: not detected

Cc1ccc(O)c(C(=O)Nc2ncc(Cl)s2)c1 [RM4850]
EC50 ([1]; 2.2.15 cells, nine daily doses, read-out: Extracellular virion DNA EC50): 0.33 ± 0.07 µM | EC90 ([1]; 2.2.15 cells, nine daily doses, read-out: Extracellular virion DNA EC90): 0.83 ± 0.1 µM | EC50 ([1]; 2.2.15 cells, nine daily doses, read-out: Intracellular HBV RI EC50): 0.9 ± 0.1 µM | CC50 ([3]; confluent 2.2.15 cultures, nine daily doses, neutral red uptake): > 100 µM | EC90 ([4]; Wild-type, Huh7 transient transfection): 2 ± 0.3 µM | EC50 ([4]; Wild-type, Huh7 transient transfection, read-out: EC50): 0.73 ± 0.08 µM | EC50 ([5]; L180M/M204V, read-out: EC50): 0.87 ± 0.11 µM | EC90 ([5]; L180M/M204V, read-out: EC90): 2.1 ± 0.3 µM | EC50 ([6]; L180M, read-out: EC50): 0.83 ± 0.09 µM | EC90 ([6]; L180M, read-out: EC90): 2.2 ± 0.2 µM | EC50 ([7]; M204I, read-out: EC50): 1 ± 0.2 µM | EC90 ([7]; M204I, read-out: EC90): 2.4 ± 0.3 µM | EC50 ([8]; M204V, read-out: EC50): 0.8 ± 0.1 µM | EC90 ([8]; M204V, read-out: EC90): 2.1 ± 0.3 µM | EC50 ([9]; N236T, read-out: EC50): 0.67 ± 0.08 µM | EC90 ([9]; N236T, read-out: EC90): 2.2 ± 0.2 µM | differences in potency against drug-resistant viruses relative to wild-type HBV [20]: No significant differences | EC50 ([14]; Genotype 1b replicon): > 20 µM | EC90 ([14]; Genotype 1b replicon): > 20 µM | CC50 [21]: 2.3 ± 0.2 µM

CS(=O)(=O)c1cnc(NC(=O)c2ccccc2O)s1 [Compound 6, 2-hydroxy-N-(5-(methylsulfonyl)thiazol-2-yl)benzamide]
EC50 [1, 28]: > 10 µM | EC50 [1, 29]: > 10 µM | EC90 ([1]; Hepatitis B virus, 2.2.15 cells, nine daily doses, read-out: Extracellular virion DNA EC90): > 10 µM | EC90 ([1]; Hepatitis B virus, 2.2.15 cells, nine daily doses, read-out: Intracellular HBV RI EC90): > 10 µM | CC50 at 9 days [2]: > 100 µM | Selectivity Index ([14]; Genotype 1b replicon, CC50/EC50): 74 | EC50 [14, 30]: 0.04 ± 0.005 µM | EC90 [14, 30]: 0.59 ± 0.07 µM | activity against HCV ([14]; among the other thiazolides): exhibited activity | CC50 at 3 days ([15]; AVA5 cells (HCV replicon, sub-genomic CON1)): 2.8 ± 0.3 µM | EC50 [22]: 1.5 µM | EC90 [22]: 5.2 µM | CC50 at 3 days [23]: 43 µM | EC50 [24]: 0.89 µM | EC90 ([24]; Hepatitis C virus): 8.8 µM | CC50 [25]: > 10 µM | EC50 [26]: 0.8 µM | EC90 [26]: 3.4 µM | CC50 [27]: > 10 µM
